Experimental data: patent publication US20230192646A1, “DIHYDRO-CYCLOPENTA-ISOQUINOLINE DERIVATIVES” (UCB Biopharma SRL, priority 2019, published 2023)

Target: T1, IgE-Tb / FcεR1α-Y131A-AF488 (soluble IgE receptor FcεR1α with a Y131A mutation) (Homo sapiens, UniProt P0DOX4, C225A/N265Q/N371Q)
T1 construct: 86 nmoles of IgE-Fc(N265Q, N371Q) (Young et al., 1995)
Assay: In vitro FRET assay of IgE-Tb binding to FcεR1α-Y131A-AF488, 2 hours incubation (examples 16 and 89)
Details: 5 nM IgE-Tb, 25 nM FcεR1α-Y131A-AF488; 2 hours at room temperature; read-out: FRET IC50 range
Method: 86 nmoles of IgE-Fc(N265Q, N371Q) (Young et al., 1995) at 172 μM in 100 mM NaHCO3, pH 9.5 was added to 1 mg of LanthaScreen™ Amine Reactive Tb Chelate (ThermoFisher catalogue number PV3583) and incubated for 16 hours at 20° C. The material was then buffer exchanged into Phosphate Buffered Saline (being, 137 mM NaCl, 2.7 mM KCl, 10 mM Na2HPO4, 1.8 mM K2HPO4, pH 7.4) and the material quantified and the degree of Tb conjugation determined by measuring the absorption at 280 nm and 343 nm.
400 nmoles FcεR1α (Y131A mutant) (Cook et al., 1997) at 400 μM in 100 mM NaOAc pH 5.5 was reacted with 1 mM final concentration sodium periodate (in 100 mM NaOAc, pH 5.5) for 60 minutes at 22° C. […]
175 nmoles of protein was added to 1 mg of Alexa Fluor™ 488 hydrazide (Invitrogen) and incubated for 16 hours at 22° C. […] The protein was buffer exchanged into Phosphate Buffered Saline (being, 137 mM NaCl, 2.7 mM KCl, 10 mM Na2HPO4, 1.8 mM K2HPO4, pH 7.4) and the material quantified and the degree of Alexa Fluor™ 488 conjugation determined by measuring the absorption at 280 nm and 495 nm.
The aim was to measure binding of IgE-Tb to receptor, and the inhibition thereof by compounds, using an in vitro Fluorescence Resonance Energy Transfer (FRET) Assay. […]
Measurement of FRET for each well was carried out by exciting at 330 nm and measuring emission at 495/520 nm using an Envision plate reader (Perkin Elmer). […]

T1 sequence (P0DOX4 224-547 C225A/N265Q/N371Q): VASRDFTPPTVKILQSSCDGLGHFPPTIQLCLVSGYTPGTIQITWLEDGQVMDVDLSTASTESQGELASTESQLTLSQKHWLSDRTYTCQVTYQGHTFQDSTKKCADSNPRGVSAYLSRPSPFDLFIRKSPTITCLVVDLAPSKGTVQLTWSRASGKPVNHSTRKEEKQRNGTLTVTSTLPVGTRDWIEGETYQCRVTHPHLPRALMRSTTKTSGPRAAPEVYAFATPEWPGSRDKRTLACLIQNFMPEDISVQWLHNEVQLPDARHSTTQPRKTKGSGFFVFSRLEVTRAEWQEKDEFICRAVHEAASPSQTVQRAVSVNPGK

Question: `CCNC(=O)N[C@H]1C[C@H](O)c2cc(S(=O)(=O)NCC(C)C)c3cc(C4CC4)ncc3c21` (racemic) [Example 16, 1-ethyl-3-[trans-(7RS,9RS)-3-cyclopropyl-7-hydroxy-5-(2-methylpropylsulfamoyl)-8,9-dihydro-7H-cyclopenta[h]isoquinolin-9-yl]urea] was tested. Which IC50 did it give?
Answer: 100 to 2000 nM

Question: With `CC(C)(F)CNS(=O)(=O)c1cc2c(c3cnc(C4CC4)cc13)C(N)CC2NC(=O)c1cccnc1` (centres unmarked) [Example 89, N-[9-amino-3-cyclopropyl-5-[(2-fluoro-2-methylpropyl)sulfamoyl]-8,9-dihydro-7H-cyclopenta[h]isoquinolin-7-yl]pyridine-3-carboxamide] as the molecule, how does the IC50 read?
Answer: 100 to 2000 nM
